Reference: US20190047966A1, “NOVEL COMPOUND AND PHARMACOLOGICALLY ACCEPTABLE SALT THEREOF” (MEIJI SEIKA PHARMA CO., LTD., priority 2016, published 2019)
pKi: −log10 of the molar value. Structures can show the parent of a compound that is named as a salt.

Key:
[1] = target: T1, human histamine H4 receptor (Homo sapiens, UniProt Q9H3N8); assay: Evaluation of Human H4 Receptor Affinity ([3H]histamine binding); details: inhibition constant Ki, CHO-K1 membrane preparation, read-out: Evaluation of H4 Receptor Affinity
T1 construct: purchased PerkinElmer Inc; host or cells: CHO-K1
In short: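 Membranes from CHO-K1 cells expressing human H4 receptor incubated with 8.2 nM [3H]histamine and compound for 90 min at 25 °C in 50 mM Tris-HCl pH 7.4, 1.25 mM EDTA, then filtered and counted. Nonspecific binding defined with 1.0 μM histamine; Ki from IC50 by Cheng-Prusoff using Kd 5.7 nM.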

[2] = target: human histamine H1 receptor (Homo sapiens, UniProt P35367); assay: Evaluation of Human H1 Receptor Affinity ([3H]pyrilamine binding); parameters: purchased PerkinElmer Inc; host or cells: CHO-K1; details: inhibition constant Ki, CHO-K1 membrane preparation
In short: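 Ki values are Cheng-Prusoff conversions of IC50 (Kd 1.1 nM) from radioligand displacement of 1.2 nM [3H]pyrilamine, with 1.0 μM pyrilamine defining nonspecific binding.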

Chain of human histamine H1 receptor (P35367 whole entry): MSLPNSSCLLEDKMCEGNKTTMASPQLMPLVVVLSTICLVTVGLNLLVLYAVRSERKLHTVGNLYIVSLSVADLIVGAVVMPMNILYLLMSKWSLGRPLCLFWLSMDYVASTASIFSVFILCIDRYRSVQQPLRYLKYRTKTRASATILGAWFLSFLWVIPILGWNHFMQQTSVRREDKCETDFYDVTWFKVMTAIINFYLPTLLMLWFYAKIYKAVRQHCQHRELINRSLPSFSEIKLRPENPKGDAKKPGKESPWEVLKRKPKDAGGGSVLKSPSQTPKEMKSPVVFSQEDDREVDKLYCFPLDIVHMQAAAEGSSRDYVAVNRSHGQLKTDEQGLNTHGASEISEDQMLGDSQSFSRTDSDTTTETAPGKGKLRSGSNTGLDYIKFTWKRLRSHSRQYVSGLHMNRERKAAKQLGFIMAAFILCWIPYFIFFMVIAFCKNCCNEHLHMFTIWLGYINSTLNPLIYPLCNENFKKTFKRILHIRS
T1 sequence (Q9H3N8 whole entry): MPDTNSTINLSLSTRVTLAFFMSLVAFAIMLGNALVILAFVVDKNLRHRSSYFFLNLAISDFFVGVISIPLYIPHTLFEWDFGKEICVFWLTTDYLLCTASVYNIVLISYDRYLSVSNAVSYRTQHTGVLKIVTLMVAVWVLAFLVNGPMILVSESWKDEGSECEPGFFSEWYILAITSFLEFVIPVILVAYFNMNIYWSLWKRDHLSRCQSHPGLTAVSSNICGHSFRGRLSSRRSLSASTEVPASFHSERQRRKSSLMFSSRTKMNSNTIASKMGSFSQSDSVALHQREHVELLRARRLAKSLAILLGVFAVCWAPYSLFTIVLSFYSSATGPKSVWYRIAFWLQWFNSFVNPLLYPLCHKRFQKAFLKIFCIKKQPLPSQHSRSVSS

SMILES	pKi [1]	pKi [2]
CC(C)(C(=O)O)[C@H]1C[C@H](OCCN2CCN(c3nc(N)nc4c3CCc3cc(OCc5ccc(OC(F)(F)F)cc5)ccc3-4)CC2)C1 [Example 174, trans-2-(3-(2-(4-(2-amino-8-((4-(trifluoromethoxy)benzyl)oxy)-5,6-dihydrobenzo[h]quinazolin-4-yl)piperazin-1-yl)ethoxy)cyclobutyl)-2-methylpropanoic acid]	> 7.00	> 7.00
N#CC1(C(=O)O)CCC(COCCN2CCN(c3nc(N)nc4c3CCc3cc(OCc5ccc(OC(F)(F)F)cc5)ccc3-4)CC2)CC1 (stereo not shown) [Example 175, 4-((2-(4-(2-amino-8-((4-(trifluoromethoxy)benzyl)oxy)-5,6-dihydrobenzo[h]quinazolin-4-yl)piperazin-1-yl)ethoxy)methyl)-1-cyanocyclohexane-1-carboxylic acid]	> 7.00	> 7.00
Nc1nc2c(c(N3CCN(CCOC4CCC(C(=O)O)OC4)CC3)n1)CCc1cc(OCc3ccc(OC(F)(F)F)cc3)ccc1-2 (stereo not shown) [Example 179, 5-(2-(4-(2-amino-8-((4-(trifluoromethoxy)benzyl)oxy)-5,6-dihydrobenzo[h]quinazolin-4-yl)piperazin-1-yl)ethoxy)tetrahydro-2H-pyran-2-carboxylic acid]	> 7.00	> 7.00
Nc1nc2c(c(N3CCN(CCO[C@H]4C[C@@H]5[C@H](C4)[C@@]5(F)C(=O)O)CC3)n1)CCc1cc(OCc3ccc(OC(F)(F)F)cc3)ccc1-2 [Example 180, (1R,3r,5S,6s)-3-(2-(4-(2-amino-8-((4-(trifluoromethoxy)benzyl)oxy)-5,6-dihydrobenzo[h]quinazolin-4-yl)piperazin-1-yl)ethoxy)-6-fluorobicyclo[3.1.0]hexane-6-carboxylic acid]	> 7.00	> 7.00
Nc1nc2c(c(N3CCN(CCO[C@H]4CC[C@H]5[C@H](C(=O)O)[C@H]54)CC3)n1)CCc1cc(OCc3ccc(OC(F)(F)F)cc3)ccc1-2 [Example 181, (1S,25,5R,65)-2-(2-(4-(2-amino-8-((4-(trifluoromethoxy)benzyl)oxy)-5,6-dihydrobenzo[h]quinazolin-4-yl)piperazin-1-yl)ethoxy)bicyclo[3.1.0]hexane-6-carboxylic acid]	6.30 to 7.00	> 7.00
Nc1nc2c(c(N3CCN(CCOCc4ccc(C(=O)O)s4)CC3)n1)CCc1cc(OCc3ccc(OC(F)(F)F)cc3)ccc1-2 [Example 182, 5-((2-(4-(2-amino-8-((4-(trifluoromethoxy)benzyl)oxy)-5,6-dihydrobenzo[h]quinazolin-4-yl)piperazin-1-yl)ethoxy)methyl)thiophene-2-carboxylic acid]	6.30 to 7.00	> 7.00
Nc1nc2c(c(N3CCN(CCOc4csc(C(=O)O)c4)CC3)n1)CCc1cc(OCc3ccc(OC(F)(F)F)cc3)ccc1-2 [Example 183, 4-(2-(4-(2-amino-8-((4-(trifluoromethoxy)benzyl)oxy)-5,6-dihydrobenzo[h]quinazolin-4-yl)piperazin-1-yl)ethoxy)thiophene-2-carboxylic acid]	> 7.00	> 7.00
Nc1nc2c(c(N3CCN(CCOCC4CCCC(C(=O)O)C4)CC3)n1)CCc1cc(OCc3ccc(OC(F)(F)F)cc3)ccc1-2 (stereo not drawn) [Example 185, trans-3-((2-(4-(2-amino-8-((4-(trifluoromethoxy)benzyl)oxy)-5,6-dihydrobenzo[h]quinazolin-4-yl)piperazin-l-yl)ethoxy)methyl)cyclohexane-1-carboxylic acid dihydrochloride]	> 7.00	> 7.00
CS(=O)(=O)NC(=O)COCCOCCN1CCN(c2nc(N)nc3c2CCc2cc(OCc4ccc(Cl)cc4)ccc2-3)CC1 [Example 187, 2-(2-(2-(4-(2-amino-8-((4-chlorobenzyl)oxy)-5,6-dihydrobenzo[h]quinazolin-4-yl)piperazin-1-yl)ethoxy)ethoxy)-N-(methylsulfonyl)acetamide]	6.30 to 7.00	> 7.00
CNC(=O)COCCOCCN1CCN(c2nc(N)nc3c2CCc2cc(OCc4ccc(Cl)cc4)ccc2-3)CC1 [Example 188, 2-(2-(2-(4-(2-amino-8-((4-chlorobenzyl)oxy)-5,6-dihydrobenzo[h]quinazolin-4-yl)piperazin-1-yl)ethoxy)ethoxy)-N-methylacetamide dihydrochloride]	> 7.00	> 7.00
Nc1nc2c(c(N3CCN(CCO[C@H]4C[C@@H](C(=O)NO)C4)CC3)n1)CCc1cc(OCc3ccc(OC(F)(F)F)cc3)ccc1-2 [Example 189, cis 3-(2-(4-(2-amino-8-((4-(trifluoromethoxy)benzyl)oxy)-5,6-dihydrobenzo[h]quinazolin-4-yl)piperazin-1-yl)ethoxy)-N-hydroxycyclobutane-l-carboxamide]	> 7.00	> 7.00
Nc1nc2c(c(N3CCN(CCOCC4CN(C5=NS(=O)(=O)N=C5O)C4)CC3)n1)CCc1cc(OCc3ccc(OC(F)(F)F)cc3)ccc1-2 [Example 190(b), 3-(3-((2-(4-(2-amino-8-((4-(trifluoromethoxy)benzyl)oxy)-5,6-dihydrobenzo[h]quinazolin-4-yl)piperazin-1-yl)ethoxy)methyl)azetidin-1-yl)-4-hydroxy-1,2,5-thiadiazole 1,1-dioxide]	> 7.00	> 7.00
CN1CCN(c2nc(N)nc3c2CCc2cc(NS(=O)(=O)c4ccc(OCC(F)(F)F)cc4)ccc2-3)CC1 [Example 191, N-(2-amino-4-(4-methylpiperazin-1-yl)-5,6-dihydrobenzo[h]quinazolin-8-yl)-4-(2,2,2-trifluoroethoxy)benzenesulfonamide]	> 7.00	> 7.00
Nc1nc2c(c(N3CCNCC3)n1)CCc1cc(NS(=O)(=O)c3ccc(OC(F)(F)F)cc3)ccc1-2 [Example 192, N-(2-amino-4-(4-piperazin-1-yl)-5,6-dihydrobenzo[h]quinazolin-8-yl)-4-(trifluoromethoxy)benezenesulfonamide hydrochloride]	> 7.00	> 7.00
CN1CCCN(c2nc(N)nc3c2CCc2cc(NS(=O)(=O)c4ccc(OC(F)(F)F)cc4)ccc2-3)CC1 [Example 193, N-(2-amino-4-(4-methyl-1,4-diazepan-1-yl)-5,6-dihydrobenzo[h]quinazolin-8-yl)-4-(trifluoromethoxy)benzenesulfonamide bis(trifluoroacetate)]	> 7.00	> 7.00
CN1CCN(c2nc(N)nc3c2CCc2cc(NS(=O)(=O)N4CCC(F)(F)CC4)ccc2-3)CC1 [Example 194, N-(2-amino-4-(4-methylpiperazin-1-yl)-5,6-dihydrobenzo[h]quinazolin-8-yl)-4,4-difluoropiperidine-1-sulfonamide]	6.30 to 7.00	6.30 to 7.00
CN1CCN(c2nc(N)nc3c2CCc2cc(NC(=O)Nc4ccc(Cl)cc4)ccc2-3)CC1 [Example 195, 1-(2-amino-4-(4-methylpiperazin-1-yl)-5,6-dihydrobenzo[h]quinazolin-8-yl)-3-(4-chlorophenyl)urea]	> 7.00	6.30 to 7.00
CN1CCN(c2nc(N)nc3c2CCc2cc(OCc4ccc(Br)cc4)ccc2-3)CC1 [Example 197, 8-((4-bromobenzyl)oxy)-4-(4-methylpiperazin-1-yl)-5,6-dihydrobenzo[h]quinazolin-2-amine]	> 7.00	> 7.00
CN1CCN(c2nc(N)nc3c2CCc2cc(OCc4ccc(OC(F)(F)F)cc4)ccc2-3)CC1 [Example 198, 4-(4-methylpiperazin-1-yl)-8-((4-(trifluoromethoxy)benzyl)oxy)-5,6-dihydrobenzo[h]quinazolin-2-amine]	> 7.00	> 7.00
CN1CCN(c2nc(N)nc3c2CCc2cc(OCC4CCOCC4)ccc2-3)CC1 [Example 199, 4-(4-methylpiperazin-1-yl)-8-((tetrahydro-2H-pyran-4-yl)methoxy)-5,6-dihydrobenzo[h]quinazolin-2-amine]	6.30 to 7.00	6.30 to 7.00
CN1CCN(c2nc(N)nc3c2CCc2ccc(OCc4ccccc4)cc2-3)CC1 [Example 200, 9-(benzyloxy)-4-(4-methylpiperazin-1-yl)-5,6-dihydrobenzo[h]quinazolin-2-amine]	> 7.00	> 7.00
CN1CCN(c2nc(N)nc3c2CCCc2ccc(OCc4ccccc4)cc2-3)CC1 [Example 202, 10-(benzyloxy)-4-(4-methylpiperazin-1-yl)-6,7-dihydro-5H-benzo[6,7]cyclohepta[1,2-d]pyrimidin-2-amine]	> 7.00	6.30 to 7.00
CN1CCN(c2nc(N)nc3c2oc2ccc(OCc4ccccc4)cc23)CC1 [Example 203, 8-(benzyloxy)-4-(4-methylpiperazin-1-yl)benzofuro[3,2-d]pyrimidin-2-amine]	> 7.00	> 7.00
CN1CCN(c2nc(N)nc3c2CCOc2cc(OCc4ccccc4)ccc2-3)CC1 [Example 204, 9-(benzyloxy)-4-(4-methylpiperazin-1-yl)-5,6-dihydrobenzo[2,3]oxepino[4,5-d]pyrimidin-2-amine]	> 7.00	> 7.00
Nc1nc2c(c(N3CCN(CCO[C@H]4C[C@@H](C(=O)O)C4)CC3)n1)CCc1cc(OCc3ccc(OC(F)(F)F)cc3F)ccc1-2 [Example 205, cis-3-(2-(4-(2-amino-8-((2-fluoro-4-(trifluoromethoxy)benzyl)oxy)-5,6-dihydrobenzo[h]quinazolin-4-yl)piperazin-1-yl)ethoxy)cyclobutane-1-carboxylic acid]	> 7.00	> 7.00
Nc1nc2c(c(N3CCN(CCO[C@H]4C[C@@H](C(=O)O)C4)CC3)n1)CCc1cc(OCc3ccc(OC(F)(F)F)c(F)c3)ccc1-2 [Example 206, cis-3-(2-(4-(2-amino-8-((3-fluoro-4-(trifluoromethoxy)benzyl)oxy)-5,6-dihydrobenzo[h]quinazolin-4-yl)piperazin-1-yl)ethoxy)cyclobutane-1-carboxylic acid]	> 7.00	> 7.00
